The source of these data is patent US11771651B2, “Liposomes and uses thereof” (Academia Sinica, priority 2018, dated 2023).

Format in all cases: cell-based, human
For assay [1], the system named is KB cells. Nature of the assay: MTT assay, photo-responsive liposomes. Conditions: DOX apparent concentration, 40 hours incubation. The method, then:
Then, the medium was replaced by the MEM medium (without FBS) containing free DOX, or the MEM medium (without FBS) containing DDL or MDL, in the presence or absence of light irradiation (5 mW/cm^2, 4 minutes), and then incubated at 37° C. for additional 20 hours. The medium was further replaced to MEM with 10% FBS for another 20 hours incubation at 37° C. 20 μl of MTT stock solution (5 mg/ml in PBS) was added to each well incubated at 37° C. for 2 hours, then removed 170 μl of culture medium followed by the addition of 200 μl of DMSO to each well to dissolve the purple formazan product at 37° C. on a 120 rpm reciprocal shaker for 10 minutes. The absorbance of the formazan product in DMSO solution at 540 nm was measured by plate reader so as to estimate cellular viability.
Background: Tetrazolium assays rely on reduction of a dye to a coloured formazan, in cell work by metabolically active cells.

The subject of assay [2] is KB cells. Put plainly: MTT assay, phosphatase-responsive liposomes. Conditions: free DOX, ALP status not stated. The procedure:
In the study of the phosphatase-responsive liposomes, KB cells (2×10^4 cells per well) were seeded on a 96 well plate in DMEM with 10% FBS at 37° C. for 20 hours. Then, the medium was replaced by the MEM medium (without FBS) containing DOX liposome, 3-MDL, 4-MDL, 5-MDL, 6-MDL, 7-MDL or free DOX, with or without ALP (50 U/ml), and then incubated at 37° C. for 20 hours. The medium was further replaced to MEM with 10% FBS for another 20 hour incubation at 37° C. 20 μl of MTT stock solution (5 mg/ml in PBS) was added to each well incubated at 37° C. for 2 hours, then removed 170 μl of culture medium followed by the addition of 200 μl of DMSO to each well to dissolve the purple formazan product at 37° C. on a 120 rpm reciprocal shaker for 10 minutes. The absorbance of the formazan product in DMSO solution at 540 nm was measured by plate reader to estimate cellular viability.

Assay [3] has as its system KB cells. Nature of the assay: Endogenous ALP-induced liposomal DOX release by flow cytometer. Conditions: 25 μM, 20 hours, data not shown. The procedure:
The cell solution (100 μl) were diluted to 1 ml PBS for flow cytometry analysis.
For orientation: A flow cytometer gives signals particle by particle.

“And” between values parts separate entries of the source, which are not always exact repeats. Identical values can stand only once.

Regarding `COc1cccc2c1C(=O)c1c(O)c3c(c(O)c1C2=O)C[C@@](O)(C(=O)CO)C[C@@H]3O[C@H]1C[C@H](N)[C@H](O)[C@H](C)O1` [DOX, doxorubicin], the IC50 (in general, the concentration that gives 50% inhibition) in assay [1] (UV (irradiated 4 minutes)) was 3000 nM and ~3000 nM; in assay [1] (dark (non-irradiated)) it was 700 nM and ~700 nM; in assay [2], 3000 nM. In assay [3], the “DOX uptake (cellular DOX fluorescence)” value is 100%.
